Values of other authors, collected in PubChem BioAssay AID1259409 (Chemical Carcinogenesis Research Information System (CCRIS), 2018).

Tested on: rodent chemically induced tumor inhibition, incidence and multiplicity
Assay: CCRIS tumor inhibitor studies

## CC(C(=O)O)c1ccc2c(c1)[nH]c1ccc(Cl)cc12 (centres undefined)
Carcinogen: 7,12-DIMETHYLBENZ[A]ANTHRACENE, 57-97-6, Dose [Inhibitor]: 0, 0.02% IN 20% FAT DIET CONTAINING 0.5% LINOLEIC ACID BEGINNING 7 D POST CARCINOGEN DOSE AND CONTINUING FOR DURATION OF, Route [Inhibitor]: ORAL, Species: RAT, Strain/Sex: SPRAGUE-DAWLEY/FEMALE, Target Tissue: Type of Lesion: MAMMARY GLAND: ADENOCARCINOMA, Dose [Carcinogen]: 5 MG AT 50-53 DAYS OF AGE, Promoter: NONE USED
  tumour outcome (control, treated, inhibition, significance): 56%, 52%, 7%, not calculated
Carcinogen: 7,12-DIMETHYLBENZ[A]ANTHRACENE, 57-97-6, Dose [Inhibitor]: 0, 0.02% IN 20% FAT DIET CONTAINING 4% LINOLEIC ACID BEGINNING 7 D POST CARCINOGEN DOSE AND CONTINUING FOR DURATION OF S, Route [Inhibitor]: ORAL, Species: RAT, Strain/Sex: SPRAGUE-DAWLEY/FEMALE, Target Tissue: Type of Lesion: MAMMARY GLAND: ADENOCARCINOMA, Dose [Carcinogen]: 5 MG AT 50-53 DAYS OF AGE, Promoter: NONE USED
  tumour outcome (control, treated, inhibition, significance): 53%, 61%, -15%, not calculated
Carcinogen: 7,12-DIMETHYLBENZ[A]ANTHRACENE, 57-97-6, Dose [Inhibitor]: 0, 0.02% IN 20% FAT DIET CONTAINING 12% LINOLEIC ACID BEGINNING 7 D POST CARCINOGEN DOSE AND CONTINUING FOR DURATION OF, Route [Inhibitor]: ORAL, Species: RAT, Strain/Sex: SPRAGUE-DAWLEY/FEMALE, Target Tissue: Type of Lesion: MAMMARY GLAND: ADENOCARCINOMA, Dose [Carcinogen]: 5 MG AT 50-53 DAYS OF AGE, Promoter: NONE USED
  tumour outcome (control, treated, inhibition, significance): 69%, 55%, 20%, not calculated
Carcinogen: 7,12-DIMETHYLBENZ[A]ANTHRACENE, 57-97-6, Dose [Inhibitor]: 0, 0.02% IN HIGH FAT DIET (20% CORN OIL) BEGINNING 7 D POST CARCINOGEN DOSE AND CONTINUING FOR DURATION OF STUDY (STUDY, Route [Inhibitor]: ORAL, Species: RAT, Strain/Sex: SPRAGUE-DAWLEY/FEMALE, Target Tissue: Type of Lesion: MAMMARY GLAND: ADENOCARCINOMA, Dose [Carcinogen]: 5 MG AT 50-53 DAYS OF AGE, Promoter: NONE USED
  tumour outcome (control, treated, inhibition, significance): 88%, 91%, -3%, not calculated
Carcinogen: 7,12-DIMETHYLBENZ[A]ANTHRACENE, 57-97-6, Dose [Inhibitor]: 0, 0.02% IN HIGH FAT DIET (20% CORN OIL) BEGINNING 7 D POST CARCINOGEN DOSE AND CONTINUING FOR DURATION OF STUDY (STUDY, Route [Inhibitor]: ORAL, Species: RAT, Strain/Sex: SPRAGUE-DAWLEY/FEMALE, Target Tissue: Type of Lesion: MAMMARY GLAND: TUMOR, Dose [Carcinogen]: 5 MG AT 50-53 DAYS OF AGE, Promoter: NONE USED
  tumour outcome (control, treated, inhibition, significance): 47%, 56%, -19%, not calculated
Carcinogen: 7,12-DIMETHYLBENZ[A]ANTHRACENE, 57-97-6, Dose [Inhibitor]: 0, 0.02% IN NORMAL FAT DIET (5% CORN OIL) BEGINNING 7 D POST CARCINOGEN DOSE AND CONTINUING FOR DURATION OF STUDY (STUDY, Route [Inhibitor]: ORAL, Species: RAT, Strain/Sex: SPRAGUE-DAWLEY/FEMALE, Target Tissue: Type of Lesion: MAMMARY GLAND: ADENOCARCINOMA, Dose [Carcinogen]: 5 MG AT 50-53 DAYS OF AGE, Promoter: NONE USED
  tumour outcome (control, treated, inhibition, significance): 59%, 83%, -41%, not calculated

## COc1cc(CC(C)C(C)Cc2ccc(O)c(OC)c2)ccc1O (centres undefined)
Carcinogen: 2,2'-DIHYDROXY-DI-N-PROPYLNITROSAMINE, 53609-64-6, N-ETHYL-N-HYDROXYETHYLNITROSAMINE, 13147-25-6, 3,2'-DIMETHYL-1,4-, Carcinogen: 2,2'-DIHYDROXY-DI-N-PROPYLNITROSAMINE, 53609-64-6, N-ETHYL-N-HYDROXYETHYLNITROSAMINE, 13147-25-6, 3,2'-DIMETHYL-1,4-, Dose [Inhibitor]: 0, 1% IN DIET FOR 4 WK BEGINNING 1 D PRIOR TO FIRST CARCINOGEN DOSE (STUDY DURATION: 36 WK), Route [Inhibitor]: ORAL, Species: RAT, Strain/Sex: F344/MALE, Target Tissue: Type of Lesion: KIDNEY: ADENOMA, Dose [Carcinogen]: 1000 MG/KG BW DHPN TWICE, 1500 MG/KG EHEN TWICE, 75 MG/KG BW DMAB 3 TIMES, SEQUENTIALLY OVER 3 WK, Promoter: NONE USED
  tumour outcome (control, treated, inhibition, significance): 6/10 (60%), 5/12 (42%), 30%, not significant
Carcinogen: 2,2'-DIHYDROXY-DI-N-PROPYLNITROSAMINE, 53609-64-6, N-ETHYL-N-HYDROXYETHYLNITROSAMINE, 13147-25-6, 3,2'-DIMETHYL-1,4-, Carcinogen: 2,2'-DIHYDROXY-DI-N-PROPYLNITROSAMINE, 53609-64-6, N-ETHYL-N-HYDROXYETHYLNITROSAMINE, 13147-25-6, 3,2'-DIMETHYL-1,4-, Dose [Inhibitor]: 0, 1% IN DIET FOR 4 WK BEGINNING 1 D PRIOR TO FIRST CARCINOGEN DOSE (STUDY DURATION: 36 WK), Route [Inhibitor]: ORAL, Species: RAT, Strain/Sex: F344/MALE, Target Tissue: Type of Lesion: LUNG: ADENOMA, Dose [Carcinogen]: 1000 MG/KG BW DHPN TWICE, 1500 MG/KG EHEN TWICE, 75 MG/KG BW DMAB 3 TIMES, SEQUENTIALLY OVER 3 WK, Promoter: NONE USED
  tumour outcome (control, treated, inhibition, significance): 5/10 (50%), 6/12 (50%), 0%, not significant

## CCCC(=O)C1=C(O)C(Cc2c(O)c(C)c(OC)c(C(=O)CCC)c2O)=C(O)C(C)(C)C1=O
Carcinogen: 7,12-DIMETHYLBENZ[A]ANTHRACENE [57-97-6], Dose [Inhibitor]: 85 NMOL/G IN 0.1 ML ACETONE 2X/WK FOR 20 WK 1 HR PRIOR TO EACH PROMOTER DOSE BEGINNING 1 WK POST LAST CARCINOGEN DOSE (S, Route [Inhibitor]: DERMAL, Species: MOUSE, Strain/Sex: ICR/FEMALE, Target Tissue: Type of Lesion: SKIN: PAPILLOMA, Dose [Carcinogen]: 390 NMOL IN 0.1 ML ACETONE ONCE (STUDY DURATION: 21 WK), Promoter: 12-O-TETRADECANOYL-13-ACETATE [16561-29-8]
  tumour outcome (control, treated, inhibition, significance): 100%, 85%, 15%, not calculated
